Assays:
[1] = test system: mucous membranes of rabbits' eyes; conditions: concentrations of 0.2%; cited from earlier work
mice = conditions: orally, mice (female); cited from earlier work
[2] = test system: Salmonella typhimurium TA 1534, TA 1537, TA 1950, TA 98, TA 100; conditions: with or without metabolic activation; cited from earlier work
Tetrahymena pyriformis = conditions: over seven generations; cited from earlier work
human genital skin 5αR = experiment: 5α-reductase activity: reduction of testosterone to DHT in human foreskin tissue enzyme mixture, HPLC; type: biochemical; conditions: for Activity (% of control) / DHT/testosterone (final): initial testosterone 0.34 mM; for DHT/testosterone (final): control 0.1562
Method: 5α-reductase activity of soluble enzyme was measured by the reduction of testosterone at 37° C. during 40 min in a 3-ml enzyme mixture of human foreskin tissue or Bos taurus (Bovine) prostatic tissues, containing NADPH, with and without the test compound in parallel with analytical Ventranal standards for Testosterone and DHT. Tissue preparation and enzyme incubations were performed in accordance with Moore et al. (see below) with modifications. All steps were carried out at 4° C. Prostate or foreskin tissue was dissected and homogenized in ice-cold homogenization phosphate buffer at pH 8.0. The homogenate was centrifuged and the resulting cell free supernatant was stored in aliquots at −80° C. Inhibition of the steroid 5α-reductase was measured by incubating the enzyme and testosterone in the presence of a plant extract or a natural compound. […] The ratio of the peak areas gave quantitative measure of the inhibition [Neeman I. et al.: Urol.
The activity of 5α-reductase (EC: 1.3.99.5) was checked in human foreskin tissue and in bovine prostatic tissues. Pure compound and plant extracts were tested for their 5α-reductase inhibition activity, in various experiments.

skin = conditions: in vivo; cited from earlier work
rats = conditions: cited from earlier work
[3] = cited from earlier work
mice CBAB1/6 = conditions: cited from earlier work
fish = conditions: in vivo; cited from earlier work

Question: For CC(C)[C@@H](C)[C@@H](O)[C@H](O)[C@@H](C)[C@H]1CC[C@H]2[C@@H]3COC(=O)[C@H]4C[C@H](O)[C@H](O)C[C@]4(C)[C@H]3CC[C@]12C [Epibrassinolide-24], which “irritation of mucous membranes of eyes” value [1] is on record?
Answer: did not irritate

Question: What about the LD50 (mice) of the same compound?
Answer: more than 1000 mg/kg

Question: And the “Ames test for mutagenic activity” value [2]?
Answer: negative

Question: And the “genetic safety / mutagenic activity” value (Tetrahymena pyriformis)?
Answer: absence of mutagenic activity

Question: And the “human skin reductase activity inhibited” value (human genital skin 5αR; as in Table 1 (10^−7M))?
Answer: 74%

Question: What about the “Activity (% of control)” value (human genital skin 5αR; inhibitor 10^−7M) of the same compound?
Answer: 25.9 % of control

Question: And the “DHT/testosterone (final)” value (human genital skin 5αR; inhibitor 10^−7M)?
Answer: 0.0404

Question: What about the skin irritation (skin) of the same compound?
Answer: did not irritate the skin

Question: What about the LD50 (rats; orally and dermally, rats (male/female)) of the same compound?
Answer: more than 2000 mg/kg

Question: What about the Dermal toxicity (rats; rat, in vivo) of the same compound?
Answer: more than 2000 mg/kg

Question: And the “toxicity and cumulative effect” value ([3]; acute, subacute, and chronic experiments)?
Answer: low toxicity and very little cumulative effect

Question: What about the “adaptogenic effect (increasing adaptive ability of the population)” value ([3]; prolonged experiments) of the same compound?
Answer: pronounced adaptogenic effect

Question: What about the toxicity ([3]; prolonged experiments) of the same compound?
Answer: no toxicity

Question: And the “spontaneous mutations in micronuclear or chromosome abberation tests” value (mice CBAB1/6)?
Answer: neither epibrassinolide-24 nor the liquid formulation caused spontaneous mutations

Question: What about the fish toxicity (fish) of the same compound?
Answer: no negative effects

Question: What about the “stimulative and toxico-protective properties in fish” value (fish) of the same compound?
Answer: pronounced stimulative and toxico-protective properties

Question: What does the source list for CC(C)(C)NC(=O)[C@H]1CC[C@H]2[C@@H]3CC[C@H]4NC(=O)C=C[C@]4(C)[C@H]3CC[C@]12C [Finasteride, reference compound]?
Answer: Activity (% of control) (human genital skin 5αR; inhibitor 10^−6M): 32.7 % of control; DHT/testosterone (final) (human genital skin 5αR; inhibitor 10^−6M): 0.0607

Reference: US8530435B2, “Brassinosteroids in treating prostatic hyperplasia and androgenic alopecia” (Grasses of Eden Ltd., priority 2008, dated 2013)
